Assay results reported in patent EP0248858B1, “NOVEL PHOSPHO-COMPOUNDS AND M[…]” (Max-Planck-Gesellschaft zur Förderung der Wissenschaften …, priority 1985, dated 1987).

Tested on: chemisch induzierten Mamma-Karzinomen
Experiment: chemically induced mammary carcinoma of the rat, oral administration as drinking solution
Type: in vivo
Conditions: Ratten; for Remission von chemisch induzierten Mamma-Karzinomen: oral (Trinklösung), Tagesdosen von 20, 40 und 60 mg/kg Körpergewicht; for Verträglichkeit compared with 1-Octadecyl-2-methyl-rac-glycero-3-phospho-cholin / Wirksamkeit compared with 1-Octadecyl-2-methyl-rac-glycero-3-phospho-cholin: oral, comparison with 1-Octadecyl-2-methyl-rac-glycero-3-phospho-cholin
From the text: Die erfindungsgemäßen Arzneimittel, welche als Wirkstoffe eine Verbindung der allgemeinen Formel I enthalten, besitzen eine ausgeprägte cytotoxische Wirksamkeit, die sowohl in vivo am chemisch induzierten Mamma-Karzinom der Ratte, als auch in vitro an Leukämiezellen in der Zellkultur nachgewiesen wurde. Darüberhinaus wurden in einer klinischen Pilotstudie bei Patientinnen mit Mamma-Karzinom Hautmetastasen zur vollständigen Abheilung bei topischer Anwendung gebracht.
Für die orale Verabreichung werden die Verbindungen der allgemeinen Formel I zweckmäßig in Form einer Trinklösung angewendet. Als Träger eignen sich beispielsweise Milch, Kakao, Fruchtsaft oder Trinkwasser. […] Bei dem für diese Versuche verwendeten Tumormodell handelt es sich um ein sogenanntes hartes Modell. Dies bedeutet, daß die an diesem Modell erstellten Befunde in den meisten Fällen auch auf die humane Situation übertragbar sind.

SMILES	Remission von chemisch induzierten Mamma-Karzinomen	Verträglichkeit compared with 1-Octadecyl-2-methyl-rac-glycero-3-phospho-cholin	Wirksamkeit compared with 1-Octadecyl-2-methyl-rac-glycero-3-phospho-cholin
CCCCCCCC/C=C\CCCCCCCCOP(=O)([O-])OCC[N+](C)(C)C [Oleylphosphocholin]	vollständigen Remission	besser verträglich	besser wirksam
CCCCCCCCCCCCCCCCOP(=O)([O-])OCC[N+](C)(C)C [Hexadecylphosphocholin]	vollständigen Remission	besser verträglich	besser wirksam
